The conditions of data set [1]: human, in vivo.
The conditions of data set [2]: CYP3A5 *1/*1 subjects compared to *1/*3 and *3/*3; population PK model; cited from earlier work.

In the case of `COC(c1ccccc1)(c1ccccc1)[C@H](Oc1nc(C)cc(C)n1)C(=O)O` [ambrisentan], in data set [1], the “association of CYP3A polymorphisms with PK parameters” value (shortened to “association of CYP3A polymorphisms”) is reported as “no significant association” and the “influence of CYP3A4 or CYP3A5 polymorphisms on elimination” value is listed as “it does not appear that CYP3A4 or CYP3A5 polymorphisms influence its elimination”. In the case of `CCOC(=O)C1=C(COCCN)NC(C)=C(C(=O)OC)C1c1ccccc1Cl` (centres unmarked) [amlodipine], in data set [1], the “AUC in CYP3A5 PM” value was “higher AUC”. Take `O=C1CCc2ccc(OCCCCN3CCN(c4cccc(Cl)c4Cl)CC3)cc2N1` [aripiprazole]: in data set [1], the “association of CYP3A polymorphisms” value is listed as “no significant association”. On to `CC(C)C(=O)Oc1ccc(CO)cc1[C@H](CCN(C(C)C)C(C)C)c1ccccc1` [fesoterodine], for which, in data set [1], the “AUC in CYP3A4 mutated alleles carriers (tendency)” value was “lower AUC” and the “Cl in CYP3A4 mutated alleles carriers (tendency)” value is listed as “higher Cl”. Take `Cc1cc2c(s1)Nc1ccccc1N=C2N1CCN(C)CC1` [olanzapine]: the “association of CYP3A polymorphisms” value in data set [1] is reported as “no significant association”.

`OCCOCCN1CCN(C2=Nc3ccccc3Sc3ccccc32)CC1` [quetiapine]: the “increased Cl” value in data set [2] is given as 29%.

Source of the values: publication PMC7235792, “Effect of the Most Relevant CYP3A4 and CYP3A5 Polymorphisms on the Pharmacokinetic Parameters of 10 CYP3A Substrates” (Biomedicines, 2020).
